The values below come from patent US20230096781A1, “METHODS OF CONTROLLING BODYWEIGHT BY MODULATING PHOSPHATIDYLINOSITOL 5-PHOSPHATE 4-KINASE BETA ACTIVITY” (University of Cincinnati, priority 2020, published 2023).

Each structure is given as a SMILES string.

Test [1] deals with WT-PI5P4Kβ-expressing Pip4K2b^−/− cells. As to the kind of experiment: Lysotracker staining of serum-starved MEFs (lysosomal acidification). It counts as cell-based, mouse.
Test [2] has as its system isogenic Pip4K2b^−/− cells. The test is described as above. It counts as cell-based, mouse. The conditions noted are these: 10 μM MPA or 20 μM Link17.

`COc1c(C)c2c(c(O)c1C/C=C(\C)CCC(=O)O)C(=O)OC2` [MPA, mycophenolic acid]: the “lysosomal acidification (lysotracker staining)” value in test [1] (10 μM MPA or 20 μM Link17) was “suppressed lysosomal acidification”; in test [1] (10 μM MPA or 20 μM Link17, listed as mycophenolic acid) it was “had a deacidification effect”; in test [2], “not”.
